Laboratory results as given in US12697277B2, “Materials and methods for mitigating the presence of nitrosamines in packaging using an active agent” (CSP TECHNOLOGIES, INC., priority 2024, dated 2026).

What was measured:
[1] = Effect of active agent (sachet or film) on nitrite in GC vial headspace, cyclohexene derivative method; type: physicochemical; conditions: 50 mg active in sachet hanging in GC vial headspace over sulfuric acid + potassium nitrite; 24 hours at 60° C.
Protocol: A 1 inch×0.5 inch tea bag sachet containing 50 mg±2 mg of a potential active agent, or a 1 cm^2 film was placed hanging in a GC vial headspace. […] 1 mL of 1M sulfuric acid solution and 1 mL of potassium nitrite solution (1 g/10 mL) was placed into the GC vial. The film or sachet was placed suspended inside the GC vial, and sealed, and aged for 24 hours at 60° C. GC-MS was conducted on the headspace using the derivative method. The methodology is based on a chemically derivative method that reacts all available NOx or nitrite directly into a measurable compound (cyclohexene) using acidified sodium cyclamate. The reaction is shown below:
It will be understood that both the nitrite anion (NO2^−) and […] (HNO2), with the relative amounts being determined by solution pH, will be quantified by this method, and gaseous NOx can also be quantified, due to its equilibrium with aqueous phase species. For simplicity, results of this test may be described as measuring the amount of nitrite.

[2] = FDA acceptable intake limit; cited from earlier work
[3] = Maximum daily dose (MDD) and acceptable intake (AI) for each nitrosamine formed by each drug
[4] = acceptable intake of the nitrosamine per day; cited from earlier work
[5] = NO adsorption by raw active and film, fixed bed reactor; type: physicochemical; conditions: raw active, 250 mg, 22° C.
Protocol: (§1) NO and NO2 adsorption experiments were conducted within a fixed bed reactor at 22° C. In each experimental run, 250 mg of the sample was meticulously deposited onto a fused silica frit positioned within a vertical quartz reactor, which boasted an internal diameter of 6 mm. Prior to each experiment, the system underwent a thorough purge using nitrogen (N) to eliminate any residual gases and ensure a clean starting point. Following the purge, calibration procedures were meticulously carried out to guarantee the accuracy of the concentration measurements. This involved precisely calibrating the ROSEMOUNT NGA 2000 detector to establish a reliable baseline for the subsequent experiments. […] Throughout the experiments, the concentrations of outlet gases, namely NO and NO2, were continuously monitored. This real-time analysis was facilitated by the highly sensitive ROSEMOUNT NGA 2000 detector (St. Louis, MO, USA). To account for any background signals or potential interferences, a blank experiment was conducted using an empty reactor. The obtained results from this blank experiment were subtracted from the measurements of the sample, ensuring that the recorded concentrations accurately reflected the adsorption behavior of NO2 by the sample. This meticulous approach enhances the reliability and precision of the experimental findings.

[6] = NO2 adsorption by raw active and film, fixed bed reactor; type: physicochemical; conditions: raw active, 250 mg, 22° C.; for NO2 Adsorbed Amount: 505 ppm of NO2
Protocol: as §1

[7] = Raw active and film studies with propranolol: Nitroso-propranolol (NPO) by LC-MS; type: physicochemical; conditions: raw active 5 g in pouch in 250 ml bottle with 1 g propranolol; 50° C./75% RH, 4 weeks
Protocol: Raw active or film with active were tested in 250 ml bottles with 1 g of propranolol (beads), to measure formation of Nitroso-propranolol (NPO). When present, the film (2 pieces of A2×2 inches) was wrapped inside bottle(s). Raw active (5 g) was placed in a pouch inside bottle(s).
Humidity was provided by vials containing a salt solution: ASAPprime™ vials (FreeThink Technologies, Branford CT, USA). A screw cap was used, with no induction seal.
NPO was directly measured by LC-MS (liquid chromatography-mass spectroscopy). The detection limit is approximately 1% of the results reported.

[8] = Film and sachet comparison in monolayer bottles: nitrite; type: physicochemical; conditions: raw active in sachet in monolayer bottle; 60° C., 40% RH, 6 days
Protocol: For raw active samples, the appropriate mass was weighed as shown in Table 20 and was placed in a sachet which was closed. Films were cut to 120 mm×65 mm. Film thickness was from about 0.3 mm to about 1.2 mm.
A 20 mL scintillation vial was placed in each bottle. 3.5 mL of potassium nitrite and 3.5 mL of sulfuric acid were added to the scintillation vial. GC-MS was conducted on the headspace using the cyclohexene derivative method for nitrite. Samples were aged at 60° C. and 40% RH for 6 days.

[9] = Effect of raw active on nitrite, headspace GC (modified FDA protocol); type: physicochemical; conditions: raw active 50 mg in GC vial with sulfuric acid + potassium nitrite, 24 hours at 60° C., estimated ppm of nitrous acid in headspace
Protocol: The active sachet was placed inside the GC vial and sealed and aged for 24 hours at 60° C. Controls only contained the liquid. GC was conducted on the headspace using a modified version of the FDA protocol for GC-MS/MS to detect nitrite. […] Food & Drug Administration (FDA), Apr. 29, 2019, published online.

With CCCOC(=O)c1cc(O)c(O)c(O)c1 [Propyl Gallate] the “Nitrite (% decrease)” value [1] was 3.2%.
In the case of CN(C)N=O [NDMA, N-nitrosodimethylamine], the “AI Limit” value [2] is given as 96 ng/day, the “AI (ppm)” value ([3]; Ranitidine, MDD 320 mg) is given as 0.3 ppm and the AI /day [4] is given as 96 ng.
In the case of [Cl-].[Cl-].[Mg+2] [Magnesium Chloride], the “Nitrite (% decrease)” value [1] is reported as −15.7%.
In the case of O=C([O-])[O-].[Ca+2] [Calcium Carbonate], the “NO Adsorbed Amount” value [5] is reported as 0.15 mg/g, the “Nitrite (% decrease)” value [1] is reported as 46.9% and the “NO2 Adsorbed Amount” value [6] is reported as 7.75 mg/g. For the same compound, the “NO2 Adsorbed Amount (mg/g)” value ([6]; 505 ppm of NO2, listed as calcium carbonate) was “most effective NO2 adsorber from amongst the raw actives tested”.
For CC1=C(/C=C/C(C)=C/C=C/C(C)=C/C=C/C=C(C)/C=C/C=C(C)/C=C/C2=C(C)C(=O)[C@@H](O)CC2(C)C)C(C)(C)C[C@H](O)C1=O [Astaxanthin], the “Nitrite (% decrease)” value [1] was 35.0%.
With Nc1ccc(C(=O)O)cc1 [4-aminobenzonic acid] the “NPO (% Decrease)” value [7] was 7%.
In the case of O=C1O[C@H]([C@@H](O)CO)C(O)=C1O [Ascorbic Acid, L-ascorbic acid], the “NO Adsorbed Amount” value [5] is reported as 0.14 mg/g, the “Nitrite (% decrease)” value [8] is reported as −111.1% and the “Nitrite (% decrease)” value [1] is reported as 23.7%. The “Nitrite (ppm)” value [9] was 0.08 ppm, the “Nitrite (ppm)” value ([9]; listed as Ascorbic acid) was “most effective raw active at decreasing the level of nitrite” and the “NO2 Adsorbed Amount” value [6] was 2.50 mg/g. The “NPO (% Decrease)” value [7] was 9%.
With OC[C@H]1O[C@@H]2O[C@H]3[C@H](O)[C@@H](O)[C@@H](O[C@H]4[C@H](O)[C@@H](O)[C@@H](O[C@H]5[C@H](O)[C@@H](O)[C@@H](O[C@H]6[C@H](O)[C@@H](O)[C@@H](O[C@H]7[C@H](O)[C@@H](O)[C@@H](O[C@H]8[C@H](O)[C@@H](O)[C@@H](O[C@H]1[C@H](O)[C@H]2O)O[C@@H]8CO)O[C@@H]7CO)O[C@@H]6CO)O[C@@H]5CO)O[C@@H]4CO)O[C@@H]3CO [Beta Cyclodextrin Powder, Beta Cyclodextrin] the “Nitrite (% decrease)” value [1] was 25.6% and the “NO2 Adsorbed Amount” value [6] was 2.96 mg/g.
With Sodium Alginate the “Nitrite (% decrease)” value [1] was 27.7%.
For [O]=[Fe][O][Fe]=[O] [Ferric Oxide], the “Nitrite (% decrease)” value [1] was 14.3%.
In the case of COC1=C(OC)C(=O)C(C/C=C(\C)CC/C=C(\C)CC/C=C(\C)CC/C=C(\C)CC/C=C(\C)CC/C=C(\C)CC/C=C(\C)CC/C=C(\C)CC/C=C(\C)CCC=C(C)C)=C(C)C1=O [Coenzyme Q10], the “Nitrite (% decrease)” value [1] is reported as −7.8%.
For N[C@@H](CS)C(=O)O [L-cysteine], the “NPO (% Decrease)” value [7] was 2%.
For CC(C)=CCC/C(C)=C/C=C/C(C)=C/C=C/C(C)=C/C=C/C=C(C)/C=C/C=C(C)/C=C/C=C(\C)CCC=C(C)C [Lycopene], the “Nitrite (% decrease)” value [1] was 23.7%.
For CCN(CC)N=O [NDEA, N-nitrosodiethylamine], the “AI Limit” value [2] is given as 26.5 ng/day.
With [Cl-].[Na+] [Sodium Chloride] the “NO Adsorbed Amount” value [5] was 0.34 mg/g, the “Nitrite (% decrease)” value [8] was 99.9% and the “Nitrite (% decrease)” value [1] was 86.8%. The “NO2 Adsorbed Amount” value [6] was 2.00 mg/g.
In the case of O=C([O-])O.[Na+] [Sodium Bicarbonate], the “NO Adsorbed Amount” value [5] is reported as 0.14 mg/g, the “Nitrite (% decrease)” value [8] is reported as 72.8% and the “Nitrite (% decrease)” value [1] is reported as 57.7%. The “NO2 Adsorbed Amount” value [6] was 2.24 mg/g.
In the case of CCN(N=O)C(C)C [NIPEA], the “AI Limit” value [2] is given as 26.5 ng/day.
With Vitamin A the “Nitrite (% decrease)” value [1] was 11.3%.
For O=C(O)/C=C/c1ccc(O)c(O)c1 [Caffeic Acid], the “Nitrite (% decrease)” value [1] was 31.6%.
For CC1=C(/C=C/C(C)=C/C=C/C(C)=C/C=C/C=C(C)/C=C/C=C(C)/C=C/C2=C(C)C[C@@H](O)CC2(C)C)C(C)(C)C[C@H](O)C1 [Zeaxanthin], the “Nitrite (% decrease)” value [1] was 26.6%.
In the case of Vitamin E, the “NO Adsorbed Amount” value [5] is reported as 0.16 mg/g, the “Nitrite (% decrease)” value [8] is reported as 31.6% and the “Nitrite (% decrease)” value [1] is reported as 89.8%. For the same compound, the “NO2 Adsorbed Amount” value [6] was 4.95 mg/g.
For CN(CC(O)c1cccc(O)c1)N=O (stereo not drawn) [1-nitroso-phenylephrine], the “AI (ppm)” value ([3]; Phenylephrine, MDD 60 mg) is given as 1.67 ppm and the AI /day [4] is given as 100 ng.
With O=C([O-])[O-].[Mg+2] [Magnesium Carbonate] the “Nitrite (% decrease)” value [1] was 33.9% and the “NO2 Adsorbed Amount” value [6] was 8.03 mg/g.
With O=NN1CCC(c2ccccc2)CC1 [1-nitroso-4-phenylpiperdine] the “AI (ppm)” value ([3]; 4-Phenylpiperdine (CPCA Calculated), MDD (ketophrofen) 200 mg) was 2 ppm, the “AI (ppm)” value ([3]; 4-Phenylpiperdine (CPCA Calculated), MDD (meperide) 600 mg) was 0.67 ppm and the “AI (ppm)” value ([3]; 4-Phenylpiperdine (CPCA Calculated), MDD (pethidine) 400 mg) was 1 ppm. For the same compound, the “average AI” value ([3]; average of the three MDD-based values) was 1.2 ppm.
In the case of CN(CCCC(=O)O)N=O [NMBA], the “AI Limit” value [2] is given as 96 ng/day.
In the case of O=C1O[C@H]([C@@H](O)CO)C([O-])=C1O.[Na+] [Sodium Ascorbate], the “NPO (% Decrease)” value [7] is reported as 9%.
With COc1cc(/C=C/C(=O)O)ccc1O [Ferulic Acid] the “Nitrite (% decrease)” value [1] was 61.7% and the “NO2 Adsorbed Amount” value [6] was 3.27 mg/g.
In the case of CC(C)N(N=O)C(C)C [NDIPA, N-nitrosodi-2-propylamine], the “AI Limit” value [2] is listed as 26.5 ng/day.
In the case of O=S(=O)([O-])[O-].[Ca+2] [Calcium Sulfate], the “Nitrite (% decrease)” value [1] is reported as 22.2%.
For Cl [Hydrochloric Acid], the “Nitrite (% decrease)” value [1] was 14.4%.
